Measurements: the NIST ThermoML archive (doi:10.1016/j.tca.2015.01.022)

Test: molar heat capacity at constant pressure
Settings: 101.33 kPa, Liquid, Small (less than 1 g) adiabatic calorimetry

CCOS(=O)(=O)[O-].CCn1cc[n+](C)c1 [1-ethyl-3-methylimidazolium ethyl sulfate]
Settings	molar heat capacity at constant pressure [J/K/mol]
243.76 K	365.3
244.3 K	365.5
245.64 K	365.8
246.24 K	366.2
247.52 K	366.5
248.19 K	366.7
249.39 K	367
250 K	367.1
250.13 K	367.4
251.27 K	367.4
252.07 K	367.9
253.16 K	368.1
254.02 K	368.6
255.04 K	368.6
255.96 K	369.1
256.92 K	369.1
257.91 K	369.8
258.8 K	369.8
259.85 K	370.3
260 K	370.1
260.69 K	370.3
261.8 K	370.7
263.74 K	371.4
265.69 K	372.2
267.63 K	372.6
269.58 K	373.3
270 K	373.3
271.52 K	373.8
273.46 K	374.3
275.41 K	375
277.35 K	375.7
279.3 K	376.2
280 K	376.4
281.24 K	376.6
283.19 K	377.4
285.13 K	378.1
287.08 K	378.3
289.02 K	379.2
290 K	379.6
290.96 K	380
292.91 K	380.7
294.85 K	381.4
296.79 K	382.1
298.15 K	382.8
298.74 K	383
300 K	383.6
300.68 K	383.7
302.62 K	384.7
304.57 K	385.4
306.51 K	386.3
308.45 K	387.3
310 K	388
310.39 K	388
312.34 K	388.9
314.28 K	389.6
316.22 K	390.6
318.17 K	391.5
320 K	392.6
320.11 K	392.5
322.05 K	393.7
324 K	394.4
325.94 K	395.3
327.89 K	396.3
329.83 K	397.2
330 K	397.3
331.77 K	398.1
333.72 K	399.1
335.66 K	400.3
337.61 K	401.5
339.55 K	402.2
340 K	402.3
341.5 K	403.1
343.44 K	404.3
345.39 K	405
347.33 K	405.9
349.28 K	407.1
350 K	407.5
351.22 K	408.1
353.17 K	409.3
355.11 K	410.2
357.06 K	411.1
359 K	412.1
360 K	412.8
360.94 K	413.3
362.88 K	414.2
364.83 K	415.2
366.77 K	416.3
370 K	418.4
